For assay [1], the system named is Pseudomonas aeruginosa strain 27853. The assay can be described thus: Agar Dilution Test (NCCLS), Pseudomonas aeruginosa. The format is cell-based. An excerpt: In particular, the active compounds of the invention show antimicrobial, e.g. antibacterial, activity against gram negative and gram positive bacteria such as Pseudomonas, e.g. Pseudomonas aeruginosa, Pseudomonas fluorescens; Enterobacter, e.g. Enterobacter cloacae; Enterococcus, e.g. Enterococcus faecalis; Moraxella, e.g. Moraxella catarrhalis; Haemophilus, e.g. Haemophilus influenza; Klebsiella, e.g. Klebsiella edwardsii, Klebsiella pneumoniae; Streptococcus, e.g. Streptococcus pneumoniae, Streptococcus durans, Streptococcus faecium, Streptococcus pyogenes; Staphylococcus, e.g. Staphylococcus aureus, Staphylococcus pyogenes; Escherichia, e.g. Escherichia coli; and Proteus, e.g. Proteus mirabilis in vitro in the Agar Dilution Test according to National Commitee for Clinical Laboratory Standards (NCCLS) 1993, Document M7-A3Vol.13, No. 25: “Methods for dilution Antimicrobial Susceptibility Tests for Bacteria that Grow Aerobically—Third Edition, Approved Standard” and in vivo in the septikaemic mouse model. […]
It has, for example, been determined that the MHK (μg/ml) of the compound of Example 139 against, for example Enterococcus faecalis strains ATTC 29212 or ATCC 51299, is of ca. 0.08 to 0.25; ainst Staphylococcus aureus strains ATCC 29213 or ATCC 9144 is of ca. 0.2 to 0.4 and against Pseudomonas aeruginosa strain 27853 is ca. 0.8.
(In general: In agar dilution the substance is mixed into plates at graded concentrations.)

For assay [2], the system named is Streptococcus pneumoniae, strain ATCC 49619. In words: Agar Dilution Test (NCCLS), Streptococcus pneumoniae. Particulars: Example 139 tested in form of the trihydrochloride. The format is cell-based. An excerpt:
In particular, the active compounds of the invention show antimicrobial, e.g. antibacterial, activity against gram negative and gram positive bacteria such as Pseudomonas, e.g. Pseudomonas aeruginosa, Pseudomonas fluorescens; Enterobacter, e.g. Enterobacter cloacae; Enterococcus, e.g. Enterococcus faecalis; Moraxella, e.g. Moraxella catarrhalis; Haemophilus, e.g. Haemophilus influenza; Klebsiella, e.g. Klebsiella edwardsii, Klebsiella pneumoniae; Streptococcus, e.g. Streptococcus pneumoniae, Streptococcus durans, Streptococcus faecium, Streptococcus pyogenes; Staphylococcus, e.g. Staphylococcus aureus, Staphylococcus pyogenes; Escherichia, e.g. Escherichia coli; and Proteus, e.g. Proteus mirabilis in vitro in the Agar Dilution Test according to National Commitee for Clinical Laboratory Standards (NCCLS) 1993, Document M7-A3Vol.13, No. 25: “Methods for dilution Antimicrobial Susceptibility Tests for Bacteria that Grow Aerobically—Third Edition, Approved Standard” and in vivo in the septikaemic mouse model. The active compounds of the invention show activity in the mouse when administerd at dosages from about 0.05 to 50 mg/kg body weight (ED50 values).The active compounds show an MHK(μg/ml) in the Agar Dilution Test from about 0.005 to ca. 50. The active compounds of the invention show an surprising overall activity spectrum.

On to “7-[[(5-Amino-1,2,4-thiadiazol-3-yl)-(Z)-(fluormethoxyimino)acetyl]amino]-3-[[(piperazinoiminomethyl)hydrazono]methyl]-3-cephem-4-carboxylic acid [Example 139]”, for which the MHK result in assay [1] is reported as “ca. 0.8 μg/ml”; in assay [2] it was “ca. 0.01 μg/ml”.
With `CO/N=C(\C(=O)N[C@@H]1C(=O)N2C(C(=O)O)=C(CSc3nc(=O)c(=O)[nH]n3C)CS[C@H]12)c1csc(N)n1` [ceftriaxone, reference compound], the MHK result in assay [2] is reported as “ca. 0.02 μg/ml”.

Source of the values: patent US6531465B1 (priority 1995, dated 2003).
